Experimental data published in patent US20130150325A1, “3-(Fluorovinyl)pyrazoles and their use” (BAYER INTELLECTUAL PROPERTY GMBH, priority 2011, published 2013).

System: HCT 116 cells transfected with a luciferase reporter under the control of an HIF-responsive sequence
Experiment: HIF-luciferase assay
Type: cell-based
Settings: Homo sapiens; HCT 116 HIF-luciferase reporter cells, hypoxia chamber (1% O2), 24 h; in some cases means of up to four individual determinations
Outline: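 Stably transfected HCT 116 cells, plated overnight under normoxia, were exposed to test substances (0-10 μmol/l) for 24 h at 1% O2. Luminescence was read 5 min after adding luciferase reagent, with normoxic cells as background controls. IC50 derived from the hypoxia-driven signal.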

Row | SMILES | IC50
1 | CNc1ccc(Cn2nc(/C=C(\F)c3ccc(OC(F)(F)F)cc3)cc2C)cn1 [Example 117, 5-[(3-{(Z)-2-Fluoro-2-[4-(trifluoromethoxy)phenyl]vinyl}-5-methyl-1H-pyrazol-1-yl)methyl]-N-methylpyridine-2-amine] | 0.03 µM
2 | Cc1cc(/C=C(\F)c2ccc(OC(F)(F)F)cc2)nn1Cc1ccnc(N2CCN(C3CC3)CC2)c1 [Example 120, 1-Cyclopropyl-4-{4-[(3-{(Z)-2-fluoro-2-[4-(trifluoromethoxy)phenyl]vinyl}-5-methyl-1H-pyrazol-1-yl)methyl]pyridin-2-yl}piperazine] | 0.02 µM
3 | Cc1cc(/C=C(\F)c2ccc(OC(F)(F)F)cc2)nn1Cc1cccc(C(C)(C)O)c1 [Example 121, 2-{3-[(3-{(Z)-2-Fluoro-2-[4-(trifluoromethoxy)phenyl]vinyl}-5-methyl-1H-pyrazol-1-yl)methyl]phenyl}propan-2-ol] | 0.04 µM

Continued by falling IC50, values first:

Row | IC50 | SMILES
4 | 0.04 µM | Cc1cc(/C=C(\F)c2ccc(OC(F)(F)F)cc2)nn1Cc1cccc(C(=O)N2CCCC2)c1 [Example 114, {3-[(3-{(Z)-2-Fluoro-2-[4-(trifluoromethoxy)phenyl]vinyl}-5-methyl-1H-pyrazol-1-yl)methyl]-phenyl}(pyrrolidin-1-yl)methanone]
5 | 0.004 µM | Cc1cc(/C=C(\F)c2ccc(OC(F)(F)F)cc2)nn1Cc1cccc(N2CC(O)C2)c1 [Example 113, 1-{3-[(3-{(Z)-2-Fluoro-2-[4-(trifluoromethoxy)phenyl]vinyl}-5-methyl-1H-pyrazol-1-yl)methyl]-phenyl}azetidin-3-ol]
